Source: patent US20230329236A1, “HERBICIDAL PYRIMIDINE DERIVATIVES” (MoA Technology Limited, priority 2020, published 2023)

Assays:
Details in all cases: 336 h, Table 3, post-emergence, 14±1 days post application
Veronica persica (VERPE) = assay: Post-emergence glasshouse test, visual injury, VERPE; assay type: in vivo
In short: (§1)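 Seeds sown in sandy loam soil; seedlings grown to BBCH 12-14, then sprayed with active ingredient (g/ha) in acetone/water 50:50 plus 0.5% Tween 20; plants kept in glasshouse, watered as needed; damage assessed after 14±1 days as % of untreated.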

[1] = system: Amaranthus retroflexus (AMARE); assay: Post-emergence glasshouse test, visual injury, AMARE; assay type: in vivo
In short: as §1

[2] = system: Lolium multiflorum (LOLMU); assay: Post-emergence glasshouse test, visual injury, LOLMU; assay type: in vivo
In short: as §1

[3] = system: Echinochloa crus-gaffi (ECHCG); assay: Post-emergence glasshouse test, visual injury, ECHCG; assay type: in vivo, Echinochloa crus-galli
In short: as §1

| Structure (SMILES) | pest or weed control at 125 g/ha (Veronica persica (VERPE)) | pest or weed control at 125 g/ha [1] | pest or weed control at 125 g/ha [2] | pest or weed control at 125 g/ha [3] | pest or weed control at 500 g/ha (Veronica persica (VERPE)) | pest or weed control at 500 g/ha [1] | pest or weed control at 500 g/ha [2] | pest or weed control at 500 g/ha [3] |
| --- | --- | --- | --- | --- | --- | --- | --- | --- |
| Cc1cc(-c2cnc(NC3CCCC3)nc2C(F)(F)F)on1 [Compound 91] | 99% | 90% | 80% | 95% |  |  |  |  |
| Cc1cc(-c2cnc(NCC3COCCO3)nc2C2CC2)on1 (stereo not shown) [Compound 74] |  |  |  |  | 90% | 100% | 70% | 80% |
| Cc1cc(-c2cnc(NCCN3CCCC3=O)nc2C(C)C)on1 [Compound 42] |  |  |  |  | 60% | 70% | 10% | 50% |
| Cc1cc(-c2cnc(N(C)C)nc2-c2ccc(C)o2)on1 [Compound 43] |  |  |  |  | 0% | 50% | 40% | 60% |
| Cc1cc(-c2cnc(NC3CC3)nc2C(F)(F)F)on1 [Compound 114] | 70% | 0% | 0% | 20% |  |  |  |  |
| Cc1cc(-c2cnc(NCc3ccc(F)cc3)nc2C(F)(F)F)on1 [Compound 127] | 98% | 100% | 0% | 60% |  |  |  |  |
| Cc1cc(-c2cnc(NC(C)C)nc2C(F)(F)F)on1 [Compound 115] | 60% | 20% | 0% | 0% |  |  |  |  |
